Test systems include DLD-1 colon; DMS 273 small cell lung; DMS 114 small cell lung.
Holding throughout (test): growth of human tumour cells (NCI), 48 h

These results are taken from PubChem BioAssay (NCI).

Where “and” joins values, the source holds several entries; their conditions need not be identical. Equal values may be shown once.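 Test compounds were applied to cells in 96-well plates for 48 hours at 5 doses. The concentration for full growth arrest is given as TGI.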

Consider `COS(=O)CCOC(=O)c1ccccc1SSc1ccccc1C(=O)OCCS(=O)OC` (stereo unspecified), for which the TGI in the assay with DLD-1 colon was greater than 100 µM; in the assay with DMS 273 small cell lung, greater than 100 µM; in the assay on DMS 114 small cell lung, 34.1 µM.

In the case of `C=C1C(=O)C23C(CC(OC(C)=O)C1[C@@H]2OC(C)=O)C1(C)C(OC(C)=O)CCC(C)(C)C1C[C@@H]3OC(C)=O` (stereo partly specified), the TGI in the assay with DMS 273 small cell lung turned out to be 3.07 µM; in the assay on DMS 114 small cell lung, 2.4 µM.

Consider `N#CC(/C(=N\NC(N)=S)C(=O)NC1C2CC3CC(C2)CC1C3)c1ccc(Cl)cc1` (stereo unspecified), for which the TGI in the assay with DLD-1 colon, with DMS 273 small cell lung and in the assay on DMS 114 small cell lung was greater than 100 µM in each case.

As for `CN(C)/C(=N/C(=O)Nc1ccccc1)SCc1ccccc1`, the TGI with DLD-1 colon, with DMS 273 small cell lung and with DMS 114 small cell lung was greater than 100 µM throughout.

Take `O=C1CCCc2c(O)ccc(O)c21`: the figures for the TGI in the assay on DLD-1 colon, with DMS 273 small cell lung and in the assay on DMS 114 small cell lung were greater than 100 µM, greater than 100 µM and 74.9 µM, respectively.

For the compound `CC(C)c1cc2c(O)c(c1)Cc1cc(C(C)C)cc(c1O)Cc1cc(C(C)C)cc(c1O)Cc1cc(C(C)C)cc(c1O)Cc1cc(C(C)C)cc(c1O)Cc1cc(C(C)C)cc(c1O)C2`, the TGI in the assay on DLD-1 colon, in the assay with DMS 273 small cell lung and in the assay with DMS 114 small cell lung was greater than 100 µM in each case.

With `O=[N+]([O-])C(=C(c1ccccc1)c1ccccc1)[N+](=O)[O-]`, the values for the TGI with DLD-1 colon, with DMS 273 small cell lung and in the assay with DMS 114 small cell lung were 19.8 µM, 22.5 µM and 43.2 µM, respectively.

Consider `C/C(=N\NC(=S)Nc1ccc([N+](=O)[O-])cc1S(=O)(=O)O)c1ccccn1`, for which the TGI in the assay on DLD-1 colon, in the assay with DMS 273 small cell lung and in the assay on DMS 114 small cell lung was greater than 100 µM in each case.

`O=C(O)c1oc2ccc([N+](=O)[O-])c3c2c1CCC3`: the TGI with DLD-1 colon, in the assay on DMS 273 small cell lung and with DMS 114 small cell lung was greater than 100 µM in each case.

With `Cc1ccc(S(=O)(=O)ON=C2CC(c3ccccc3)N(C)C(c3ccccc3)C2)cc1` (stereo unspecified), the TGI with DMS 273 small cell lung was 41.4 µM and 56.8 µM; with DMS 114 small cell lung it was 29.9 µM.

For the compound `CCCC/C(C)=N/NC(N)=S`, the TGI in the assay with DLD-1 colon and in the assay with DMS 114 small cell lung was greater than 100 µM each time.

For `c1ccc(CN(Cc2ccccn2)Cn2cccn2)nc1`, the values for the TGI in the assay on DLD-1 colon, with DMS 273 small cell lung and in the assay on DMS 114 small cell lung were greater than 100 µM, greater than 100 µM and 54.6 µM, respectively.

In the case of `COc1ccccc1OCC(COC(=O)Nc1ccc(C)cc1)OC(=O)Nc1ccc(C)cc1` (stereo unspecified), the TGI in the assay on DLD-1 colon was determined as 31.8 µM; in the assay with DMS 273 small cell lung, 32 µM; with DMS 114 small cell lung, 29.3 µM.

Turning to `CC(=O)Nc1[nH]c(=O)[nH]c(=O)c1N(C(C)=O)C(C)=O`, the TGI in the assay on DLD-1 colon, with DMS 273 small cell lung and in the assay on DMS 114 small cell lung was greater than 100 µM each time.

Take `Clc1ccc(CCN2CCOCC2)c(Cl)c1`: the TGI with DLD-1 colon and in the assay with DMS 114 small cell lung was greater than 100 µM throughout.

With `OCC1CC2CC1C1(C2)OCCO1` (stereo unspecified), the TGI in the assay on DLD-1 colon, with DMS 273 small cell lung and with DMS 114 small cell lung was greater than 100 µM in each case.

Take `CC1=C[C@H]2C[C@@]3(C)O[C@@H]([C@]4(C)CC[C@H]([C@@H](C)C(=O)O)OO4)CC3C(C)(C)[C@H]2CC1` (stereo partly specified): the TGI in the assay with DLD-1 colon worked out at 2.47 µM; in the assay with DMS 273 small cell lung, 1.74 µM; in the assay with DMS 114 small cell lung it was 3.32 µM.

Turning to `O=C(O)C1C2CC3CC2CC31` (stereo unspecified), the TGI with DMS 273 small cell lung and with DMS 114 small cell lung was greater than 100 µM each time.

Turning to `Clc1cccc(C2SCc3nc4ccccc4n32)c1Cl` (stereo unspecified), the figures for the TGI with DLD-1 colon, in the assay on DMS 273 small cell lung and with DMS 114 small cell lung were 32.4 µM, 32.1 µM and 36.4 µM, respectively.

With `Cc1ccc(C)c(NC(=O)CCc2n[nH]c(=S)o2)c1`, the TGI in the assay on DLD-1 colon, in the assay on DMS 273 small cell lung and in the assay on DMS 114 small cell lung was greater than 100 µM each time.

As to `Cc1cc(C(=O)NCCN(C)C)c2nc3ccccc3nc2c1`, the TGI with DLD-1 colon is 48.9 µM; in the assay with DMS 273 small cell lung, greater than 100 µM; in the assay on DMS 114 small cell lung it was 14.4 µM.

As for `Cc1cc(Br)cc(C)c1NC(=O)C(=O)C(C(=O)c1ccc(Cl)c(Cl)c1)C1OC(=O)c2ccccc21` (stereo unspecified), the TGI in the assay on DLD-1 colon is 51.2 µM; with DMS 273 small cell lung it was greater than 100 µM; in the assay with DMS 114 small cell lung, greater than 100 µM.

In the case of `OCC(O)C(OC1OC(CO)C(O)C(O)C1O)c1nn(-c2ccc(F)cc2)c2nc3cc(Cl)c(Cl)cc3cc12` (stereo unspecified), the TGI in the assay on DLD-1 colon and in the assay on DMS 114 small cell lung was greater than 100 µM in each case.

For `Cc1ccc(C)c2sc3cc(=O)ccc-3nc12`, the TGI with DLD-1 colon, in the assay with DMS 273 small cell lung and in the assay with DMS 114 small cell lung was greater than 100 µM throughout.

On to `COc1ccc(C2CC(C)=Nc3c([nH]c(=S)[nH]c3=O)N2)cc1` (stereo unspecified), for which the TGI in the assay with DMS 273 small cell lung was found to be 35.9 µM; in the assay with DMS 114 small cell lung, 38.8 µM.

With `CC12CC(=O)NN=C1c1ccccc1C2` (stereo unspecified), the TGI in the assay with DLD-1 colon, in the assay on DMS 273 small cell lung and with DMS 114 small cell lung was greater than 100 µM each time.

With `O=C1CCCC2COc3ccc(O)c1c32` (stereo unspecified), the TGI in the assay with DLD-1 colon, in the assay on DMS 273 small cell lung and in the assay with DMS 114 small cell lung was greater than 100 µM in each case.

In the case of `NC(=O)Cn1c(=O)[nH]c(=O)c2[nH]cnc21`, the TGI in the assay with DMS 273 small cell lung and in the assay on DMS 114 small cell lung was greater than 100 µM throughout.
